Reference: patent US20040077697A1, “2-Acylaminothiazole derivative or its salt” (priority 2001, published 2004)

Columns and labels:
[1] = tested on: human CD34+ cell; assay: Megakaryocyte colony formation promoting action; format: cell-based; settings: MegaCult-C, 10 to 14 days, colonies per well, average of three
Method: <Megakaryocyte Colony Formation Promoting Action>
A human CD34^+ cell was cultured at 37° C. for 10 to 14 days in the presence of a test compound in a 2-well chamber slide by using MegaCult™-C (produced by StemCell Technologies). According to the manufacturer's instructions, the slide was dehydrated, fixed, and then stained with an anti-glycoprotein IIb/IIIa antibody. A colony containing three or more of the glycoprotein IIb/IIIa positive megakaryocyte cells was defined as one colony, and the number of colonies per well was microscopically measured. The assay was replicated thrice, and an average value was evaluated as the number of megakaryocyte colonies.

SMILES	melting point	Number of megakaryocyte colonies ([1]; test compound 0.3 μM)	Number of megakaryocyte colonies ([1]; test compound 1.0 μM)	Number of megakaryocyte colonies ([1]; test compound 3.0 μM)
COc1cc(OC)cc(C(=O)Nc2nc(-c3ccccc3)c(N3CCOCC3)s2)c1.Cl	169 to 172 °C	–	–	–
COc1cc(C(=O)Nc2nc(-c3ccc(F)cc3)c(N3CCN(C4CCCCC4)CC3)s2)ccn1 [Example 2, N-[5-(4-cyclohexylpiperazin-1-yl)-4-(4-fluorophenyl)thiazol-2-yl]-2-methoxyi sonicotinamide]	263 to 266 °C	5.2	19.0	34.8
Cl.O=C(Nc1nc(-c2ccc(F)cc2)c(N2CCN(C3CCCCC3)CC2)s1)c1ccc(O)c(Cl)c1	270 to 272 °C (dec.)	–	–	–
